# Columns and labels:
# [1] = system: postmenopausal women with osteoporosis; test: Phase 2 24-week trial: serum biochemical markers of bone turnover; format: in vivo, human; conditions: 24 weeks; 20 μg daily SC
# Protocol: Biochemical Markers of bone turnover: Fasting morning blood samples (collected 24 hours after last injection if taking teriparatide) were obtained at each visit. Serum osteocalcin (OC) was measured via electrochemiluminescence assay (Roche Diagnostics, Basel, Switzerland), with […] coefficients of variation (CVs) of 1.8% and 4.8% respectively. Serum amino-terminal propeptide of type 1 procollagen (P1NP) was measured via radioimmunoassay (Orion Diagnostica, Espoo, Finland) with inter- and intra-assay CVs of 4.5% and 5.5% respectively. Serum β-c-terminal telopeptide of type one collagen (CTX) was measured via electrochemiluminescence assay (Roche Diagnostics, Basel, Switzerland) with inter- and intraassay CVs of 3.8% and 6.9% respectively.
# [2] = system: postmenopausal osteoporotic women; test: Trabecular bone score (TBS) from spinal DXA, phase 2 trial; format: in vivo, human; conditions: 20 μg daily SC
# Excerpt: To assess the effects of the PTHrP analogue abaloparatide on trabecular microarchitecture as indirectly assessed by TBS, the TBS (TBS Calculator v2.2, Medimaps group, Plan-les-Ouates, Geneva, Switzerland) in a blinded fashion at 0, 12, and 24-weeks in 222 postmenopausal osteoporotic women (age 55-85) who were randomized to receive 24-weeks of daily subcutaneous injections of placebo, abaloparatide 20-μg, abaloparatide 40-μg. abaloparatide 80-μg, or teriparatide (TPTD) 20-μg was retrospectively calculated. Between groups differences in the mean percent TBS changes were assessed by unpaired t-test.
smiles,measurement,setting,value
"CC[C@H](C)[C@H](NC(=O)[C@H](CCC(=O)O)NC(=O)[C@H](CO)NC(=O)[C@@H](NC(=O)[C@@H](N)CO)C(C)C)C(=O)N[C@@H](CCC(N)=O)C(=O)N[C@@H](CC(C)C)C(=O)N[C@@H](CCSC)C(=O)N[C@@H](Cc1cnc[nH]1)C(=O)N[C@@H](CC(N)=O)C(=O)N[C@@H](CC(C)C)C(=O)NCC(=O)N[C@@H](CCCCN)C(=O)N[C@@H](Cc1cnc[nH]1)C(=O)N[C@@H](CC(C)C)C(=O)N[C@@H](CC(N)=O)C(=O)N[C@@H](CO)C(=O)N[C@@H](CCSC)C(=O)N[C@@H](CCC(=O)O)C(=O)N[C@@H](CCCN=C(N)N)C(=O)N[C@H](C(=O)N[C@@H](CCC(=O)O)C(=O)N[C@@H](Cc1c[nH]c2ccccc12)C(=O)N[C@@H](CC(C)C)C(=O)N[C@@H](CCCN=C(N)N)C(=O)N[C@@H](CCCCN)C(=O)N[C@@H](CCCCN)C(=O)N[C@@H](CC(C)C)C(=O)N[C@@H](CCC(N)=O)C(=O)N[C@@H](CC(=O)O)C(=O)N[C@H](C(=O)N[C@@H](Cc1cnc[nH]1)C(=O)N[C@@H](CC(N)=O)C(=O)N[C@@H](Cc1ccccc1)C(=O)O)C(C)C)C(C)C [teriparatide, hPTH(1-34)]","CTX increase, median (interquartile range)",[1],"76 (13, 130) %"
same,"P1NP increase, median (interquartile range)",[1],"98 (21, 184) %"
same,TBS mean percent change,[2]; 12 weeks,+1.5%
same,TBS mean percent change,[2]; 24 weeks,+2.6%
